According to patent US10294202B2, “Pyrrolidinones as herbicides” (FMC Corporation, priority 2013, dated 2019):

Key:
barnyardgrass [1] = assay: Test A pre-/postemergence herbicide test; assay type: in vivo, Echinochloa crus-galli
Outline: (§1)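 Directed soil spray to seeded pots (preemergence) or spray onto one- to two-leaf seedlings 2–10 cm tall (postemergence); loam/sand substrate throughout. Evaluated visually after about 10 days against untreated plants, 0 = no effect, 100 = complete control.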

kochia = assay: Test A pre-/postemergence herbicide test; assay type: in vivo, Kochia scoparia
Outline: as §1

ragweed = assay: Test A pre-/postemergence herbicide test; assay type: in vivo, Ambrosia elatior
Outline: as §1

ryegrass, Italian = assay: Test A pre-/postemergence herbicide test; assay type: in vivo, Lolium multiflorum
Outline: as §1

giant foxtail = assay: Test A pre-/postemergence herbicide test; assay type: in vivo, Setaria faberii
Outline: as §1

pigweed = assay: Test A pre-/postemergence herbicide test; assay type: in vivo, Amaranthus retroflexus
Outline: as §1

wheat = assay: Test A pre-/postemergence herbicide test; assay type: in vivo, Triticum aestivum; details: Postemergence
Outline: as §1

corn = assay: Test A pre-/postemergence herbicide test; assay type: in vivo, Zea mays; details: Postemergence
Outline: as §1

blackgrass = assay: Test A postemergence herbicide test; assay type: in vivo, Alopecurus myosuroides
Outline: (§2)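 Ratings compare treated with untreated plants roughly 10 days after a postemergence application made at the one- to two-leaf stage. Scoring uses 0–100, where 0 means no effect and 100 complete control.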

galium = assay: Test A postemergence herbicide test; assay type: in vivo, Galium aparine
Outline: as §2

rice = assay: Test B flooded paddy test; assay type: in vivo, Oryza sativa; details: 500 g ai/ha, Flood; scale of 0 to 100 where 0 is no effect and 100 is complete control
Outline: (§3)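 Scored visually 0–100 (0 no effect, 100 complete control) versus controls after 13 to 15 greenhouse days. Treatment: compound added to paddy water kept 3 cm above soil, on 2-leaf-stage plants.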

sedge, umbrella = assay: Test B flooded paddy test; assay type: in vivo, Cyperus difformis; details: 500 g ai/ha, Flood; scale of 0 to 100 where 0 is no effect and 100 is complete control
Outline: as §3

ducksalad = assay: Test B flooded paddy test; assay type: in vivo, Heteranthera limosa; details: 500 g ai/ha, Flood; scale of 0 to 100 where 0 is no effect and 100 is complete control
Outline: as §3

barnyardgrass [2] = assay: Test B flooded paddy test; assay type: in vivo, Echinochloa crus-galli; details: 500 g ai/ha, Flood; scale of 0 to 100 where 0 is no effect and 100 is complete control
Outline: as §3

[3] = Postemergence, 125 g ai/ha, 0 to 100 scale, 0 is no effect, 100 is complete control
[4] = Postemergence, 500 g ai/ha, 0 to 100 scale (0 no effect, 100 complete control)
[5] = Preemergence, 125 g ai/ha, 0 to 100 scale where 0 is no effect and 100 is complete control
[6] = preemergence, 500 g ai/ha, 0 to 100 scale, 0 is no effect and 100 is complete control
[7] = Postemergence, 125 g ai/ha, visual rating on 0 to 100 scale (0 no effect, 100 complete control), approx. 10 days
[8] = 125 g ai/ha, visual rating on 0 to 100 scale (0 no effect, 100 complete control), approx. 10 days
[9] = 500 g ai/ha, 0 to 100 scale (0 no effect, 100 complete control)
[10] = 125 g ai/ha, 0 to 100 scale, 0 is no effect, 100 is complete control
[11] = Preemergence, 500 g ai/ha, visual rating on 0 to 100 scale (0 no effect, 100 complete control)

SMILES | Plant response rating, Barnyardgrass (barnyardgrass [1]; [4]) | Plant response rating, Barnyardgrass (barnyardgrass [1]; [5]) | Plant response rating, Barnyardgrass (barnyardgrass [1]; [6]) | Plant response rating, Kochia (kochia; [4]) | Plant response rating, Kochia (kochia; [5]) | Plant response rating, Kochia (kochia; [6]) | Plant response rating, Ragweed (ragweed; [7]) | Plant response rating, Ragweed (ragweed; [4]) | Plant response rating, Ryegrass, Italian (ryegrass, Italian; [7]) | Plant response rating, Ryegrass, Italian (ryegrass, Italian; [4]) | Plant response rating, Ryegrass, Italian (ryegrass, Italian; [5]) | Plant response rating, Foxtail, Giant (giant foxtail; [4]) | Plant response rating, Foxtail, Giant (giant foxtail; [5]) | Plant response rating, Foxtail, Giant (giant foxtail; [6]) | Plant response rating, Pigweed (pigweed; [7]) | Plant response rating, Pigweed (pigweed; [4]) | Plant response rating, Pigweed (pigweed; [5]) | Plant response rating, Pigweed (pigweed; [6]) | Plant response rating, Wheat (wheat; [8]) | Plant response rating, Wheat (wheat; [9]) | also measured
O=C1NCC(c2cc3ccccc3o2)C1C(=O)Nc1cccc(F)c1F (stereo not shown) [Compound 282] | 90 | 60 | 90 | 0 | 0 | 50 | 0 | 0 | 0 | 0 | 0 | 30 | 20 | 70 | 0 | 0 | 0 | 0 | 0 | 0 | Plant response rating, Barnyardgrass (barnyardgrass [1]; [3]): 50; Plant response rating, Kochia (kochia; [3]): 0; Plant response rating, Ragweed (ragweed; [5]): 0; Plant response rating, Ragweed (ragweed; [6]): 0; Plant response rating, Ryegrass, Italian (ryegrass, Italian; [6]): 0; Plant response rating, Foxtail, Giant (giant foxtail; [3]): 0; Plant response rating, Corn (corn; [10]): 0; Plant response rating, Corn (corn; [9]): 0; Plant response rating, Blackgrass (blackgrass; [10]): 0; Plant response rating, Blackgrass (blackgrass; [9]): 20; Plant response rating, Galium (galium; [10]): 0; Plant response rating, Galium (galium; [9]): 40; Plant response rating, Rice (rice): 0; Plant response rating, Sedge, Umbrella (sedge, umbrella): 30; Plant response rating, Ducksalad (ducksalad): 95; Plant response rating, Barnyardgrass (barnyardgrass [2]): 30
O=C1NCC(c2cc3ccccc3o2)C1C(=O)Nc1ccccc1C(F)(F)F (stereo not shown) [Compound 283] | 60 | 0 | 0 | 0 | 0 | 0 | 0 | 0 | 0 | 0 | 0 | 10 | 0 | 0 | 0 | 0 | 0 | 0 | 0 | 0 | Plant response rating, Barnyardgrass (barnyardgrass [1]; [3]): 0; Plant response rating, Kochia (kochia; [3]): 0; Plant response rating, Ragweed (ragweed; [5]): 0; Plant response rating, Ragweed (ragweed; [6]): 0; Ryegrass, Italian plant response rating (ryegrass, Italian; [11]): 0; Plant response rating, Foxtail, Giant (giant foxtail; [3]): 0; Plant response rating, Corn (corn; [10]): 0; Plant response rating, Corn (corn; [9]): 0; Plant response rating, Blackgrass (blackgrass; [10]): 0; Plant response rating, Blackgrass (blackgrass; [9]): 0; Plant response rating, Galium (galium; [10]): 0; Plant response rating, Galium (galium; [9]): 0; Plant response rating, Rice (rice): 0; Plant response rating, Sedge, Umbrella (sedge, umbrella): 0; Plant response rating, Ducksalad (ducksalad): 85; Plant response rating, Barnyardgrass (barnyardgrass [2]): 20
CSc1cccc(C2CNC(=O)C2C(=O)Nc2ccc(F)cc2F)c1 (stereo not shown) [Compound 288] | 80 | 30 | 70 | 20 | 30 | 50 | 0 | 0 | 0 | 0 | 0 | 30 | 30 | 90 | 0 | 0 | 0 | 0 | 0 | 0 | Plant response rating, Barnyardgrass (barnyardgrass [1]; [7]): 20; Plant response rating, Kochia (kochia; [7]): 0; Plant response rating, Ragweed (ragweed; [5]): 0; Plant response rating, Ragweed (ragweed; [6]): 0; Ryegrass, Italian plant response rating (ryegrass, Italian; [11]): 20; Plant response rating, Foxtail, Giant (giant foxtail; [7]): 20; Plant response rating, Corn (corn; [8]): 0; Plant response rating, Corn (corn; [9]): 0; Plant response rating, Blackgrass (blackgrass; [8]): 0; Plant response rating, Blackgrass (blackgrass; [9]): 0; Plant response rating, Galium (galium; [8]): 0; Plant response rating, Galium (galium; [9]): 0; Plant response rating, Rice (rice): 0; Plant response rating, Sedge, Umbrella (sedge, umbrella): 0; Plant response rating, Ducksalad (ducksalad): 65; Plant response rating, Barnyardgrass (barnyardgrass [2]): 20
O=C1NCC(c2ccc(Cl)s2)C1C(=O)Nc1ccccc1C(F)(F)F (stereo not shown) [Compound 293] | 70 | 20 | 70 | 0 | 0 | 0 | 0 | 0 | 0 | 0 | 0 | 70 | 80 | 90 | 0 | 0 | 0 | 0 | 0 | 0 | Plant response rating, Barnyardgrass (barnyardgrass [1]; [7]): 50; Plant response rating, Kochia (kochia; [7]): 0; Ryegrass, Italian plant response rating (ryegrass, Italian; [11]): 0; Plant response rating, Foxtail, Giant (giant foxtail; [7]): 50; Plant response rating, Corn (corn; [8]): 0; Plant response rating, Corn (corn; [9]): 0; Plant response rating, Blackgrass (blackgrass; [8]): 0; Plant response rating, Blackgrass (blackgrass; [9]): 10; Plant response rating, Galium (galium; [8]): 20; Plant response rating, Galium (galium; [9]): 60; Plant response rating, Rice (rice): 0; Plant response rating, Sedge, Umbrella (sedge, umbrella): 0; Plant response rating, Ducksalad (ducksalad): 95; Plant response rating, Barnyardgrass (barnyardgrass [2]): 35
